#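 Briefly, cells in 96-well plates were exposed to five compound concentrations for 48 h, and endpoints were estimated by linear interpolation. GI50 is the concentration that inhibits growth by half. TGI marks complete inhibition of growth.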
# Assays:
# Test in all cases: NCI-60 cell line screen, 48 h
# LOX IMVI melanoma = system: LOX IMVI melanoma
# IGROV1 ovarian = system: IGROV1 ovarian
# CCRF-CEM leukemia = system: CCRF-CEM leukemia
# HCT-116 colon = system: HCT-116 colon
# HCT-15 colon = system: HCT-15 colon
# UO-31 renal = system: UO-31 renal
# SNB-75 CNS = system: SNB-75 CNS
# PC-3 prostate = system: PC-3 prostate
# OVCAR-4 ovarian = system: OVCAR-4 ovarian
# EKVX NSCLC = system: EKVX NSCLC
# TK-10 renal = system: TK-10 renal
# SK-MEL-2 melanoma = system: SK-MEL-2 melanoma
# RPMI-8226 leukemia = system: RPMI-8226 leukemia
# SF-295 CNS = system: SF-295 CNS
# MCF7 breast = system: MCF7 breast
# K-562 leukemia = system: K-562 leukemia
# KM12 colon = system: KM12 colon
# SF-539 CNS = system: SF-539 CNS
# NCI-H226 lung = system: NCI-H226 lung
# 786-0 renal = system: 786-0 renal
# OVCAR-5 ovarian = system: OVCAR-5 ovarian
# SR leukemia = system: SR leukemia
# MOLT-4 leukemia = system: MOLT-4 leukemia
# UACC-62 melanoma = system: UACC-62 melanoma
# HS 578T breast = system: HS 578T breast
# HOP-92 NSCLC = system: HOP-92 NSCLC
# SK-OV-3 ovarian = system: SK-OV-3 ovarian
# M14 melanoma = system: M14 melanoma
# SW-620 colon = system: SW-620 colon
# OVCAR-8 ovarian = system: OVCAR-8 ovarian
# U251 CNS = system: U251 CNS
# NCI-H460 lung = system: NCI-H460 lung
# MDA-MB-231 breast = system: MDA-MB-231 breast
# HCC-2998 colon = system: HCC-2998 colon
# DU-145 prostate = system: DU-145 prostate
# MDA-MB-435 = system: MDA-MB-435
# T-47D breast = system: T-47D breast
# SN12C renal = system: SN12C renal
# RXF 393 renal = system: RXF 393 renal
# NCI-H522 lung = system: NCI-H522 lung
# CAKI-1 renal = system: CAKI-1 renal
# NCI/ADR-RES ovarian = system: NCI/ADR-RES ovarian
# UACC-257 melanoma = system: UACC-257 melanoma
# A498 renal = system: A498 renal
# ACHN renal = system: ACHN renal
# BT-549 breast = system: BT-549 breast
# SNB-19 CNS = system: SNB-19 CNS
# SF-268 CNS = system: SF-268 CNS
# HOP-62 NSCLC = system: HOP-62 NSCLC
# MALME-3M melanoma = system: MALME-3M melanoma
# HL-60(TB) leukemia = system: HL-60(TB) leukemia
# OVCAR-3 ovarian = system: OVCAR-3 ovarian
# SK-MEL-5 melanoma = system: SK-MEL-5 melanoma
# HT29 colon = system: HT29 colon
# COLO 205 colon = system: COLO 205 colon
# SK-MEL-28 melanoma = system: SK-MEL-28 melanoma
# A549 NSCLC = system: A549 NSCLC
smiles,measurement,setting,value
N#C/C(=C\c1ccc(-c2ccc(F)cc2)o1)C(=O)Nc1ncc(Cc2ccc(Cl)cc2Cl)s1,GI50,LOX IMVI melanoma,1.64 µM
same,TGI,LOX IMVI melanoma,3.43 µM
same,GI50,IGROV1 ovarian,2.47 µM
same,TGI,IGROV1 ovarian,7.54 µM
same,GI50,CCRF-CEM leukemia,4.23 µM
same,TGI,CCRF-CEM leukemia,> 100 µM
same,GI50,HCT-116 colon,2.9 µM
same,TGI,HCT-116 colon,10.9 µM
same,GI50,HCT-15 colon,2.38 µM
same,TGI,HCT-15 colon,> 100 µM
same,GI50,UO-31 renal,5 µM
same,TGI,UO-31 renal,> 100 µM
same,GI50,SNB-75 CNS,6.2 µM
same,TGI,SNB-75 CNS,28.4 µM
same,GI50,PC-3 prostate,2.19 µM
same,TGI,PC-3 prostate,6.04 µM
same,GI50,OVCAR-4 ovarian,2.99 µM
same,TGI,OVCAR-4 ovarian,9.23 µM
same,GI50,EKVX NSCLC,2.32 µM
same,TGI,EKVX NSCLC,6.88 µM
same,GI50,TK-10 renal,9.27 µM
same,TGI,TK-10 renal,30 µM
same,GI50,SK-MEL-2 melanoma,2.91 µM
same,TGI,SK-MEL-2 melanoma,16 µM
same,GI50,RPMI-8226 leukemia,4.33 µM
same,TGI,RPMI-8226 leukemia,> 100 µM
same,GI50,SF-295 CNS,1.92 µM
same,TGI,SF-295 CNS,4.27 µM
same,GI50,MCF7 breast,2.21 µM
same,TGI,MCF7 breast,8.67 µM
same,GI50,K-562 leukemia,3.48 µM
same,TGI,K-562 leukemia,> 100 µM
same,GI50,KM12 colon,> 100 µM
same,TGI,KM12 colon,> 100 µM
same,GI50,SF-539 CNS,2.95 µM
same,TGI,SF-539 CNS,8.8 µM
same,GI50,NCI-H226 lung,2.83 µM
same,TGI,NCI-H226 lung,8.52 µM
same,GI50,786-0 renal,2.69 µM
same,TGI,786-0 renal,10 µM
same,GI50,OVCAR-5 ovarian,4.06 µM
same,TGI,OVCAR-5 ovarian,> 100 µM
same,GI50,SR leukemia,0.778 µM
same,TGI,SR leukemia,12.2 µM
same,GI50,MOLT-4 leukemia,5.24 µM
same,TGI,MOLT-4 leukemia,> 100 µM
same,GI50,UACC-62 melanoma,3.71 µM
same,TGI,UACC-62 melanoma,> 100 µM
same,GI50,HS 578T breast,3.19 µM
same,TGI,HS 578T breast,27.9 µM
same,GI50,HOP-92 NSCLC,2.17 µM
same,TGI,HOP-92 NSCLC,9.16 µM
same,GI50,SK-OV-3 ovarian,8.63 µM
same,TGI,SK-OV-3 ovarian,34.9 µM
same,GI50,M14 melanoma,2.91 µM
same,TGI,M14 melanoma,23.6 µM
same,GI50,SW-620 colon,1.79 µM
same,TGI,SW-620 colon,4.66 µM
same,GI50,OVCAR-8 ovarian,2.94 µM
same,TGI,OVCAR-8 ovarian,16.7 µM
same,GI50,U251 CNS,2.04 µM
same,TGI,U251 CNS,4.11 µM
same,GI50,NCI-H460 lung,1.76 µM
same,TGI,NCI-H460 lung,3.64 µM
same,GI50,MDA-MB-231 breast,3.67 µM
same,TGI,MDA-MB-231 breast,32.2 µM
same,GI50,HCC-2998 colon,3.36 µM
same,TGI,HCC-2998 colon,> 100 µM
same,GI50,DU-145 prostate,4.19 µM
same,TGI,DU-145 prostate,> 100 µM
same,GI50,MDA-MB-435,2.95 µM
same,TGI,MDA-MB-435,> 100 µM
same,GI50,T-47D breast,2.75 µM
same,TGI,T-47D breast,29.8 µM
same,GI50,SN12C renal,2.48 µM
same,TGI,SN12C renal,8.64 µM
same,GI50,RXF 393 renal,2.28 µM
same,TGI,RXF 393 renal,5.78 µM
same,GI50,NCI-H522 lung,3.49 µM
same,TGI,NCI-H522 lung,34.6 µM
same,GI50,CAKI-1 renal,3.05 µM
same,TGI,CAKI-1 renal,16.7 µM
same,GI50,NCI/ADR-RES ovarian,3.55 µM
same,TGI,NCI/ADR-RES ovarian,> 100 µM
same,GI50,UACC-257 melanoma,4.23 µM
same,TGI,UACC-257 melanoma,> 100 µM
same,GI50,A498 renal,3.03 µM
same,TGI,A498 renal,22 µM
same,GI50,ACHN renal,3.52 µM
same,TGI,ACHN renal,13.9 µM
same,GI50,BT-549 breast,1.98 µM
same,TGI,BT-549 breast,4.65 µM
same,GI50,SNB-19 CNS,4.63 µM
same,TGI,SNB-19 CNS,29.5 µM
same,GI50,SF-268 CNS,3.15 µM
same,TGI,SF-268 CNS,22.6 µM
same,GI50,HOP-62 NSCLC,3.71 µM
same,TGI,HOP-62 NSCLC,16.8 µM
same,GI50,MALME-3M melanoma,2.87 µM
same,TGI,MALME-3M melanoma,9.18 µM
CCOc1ccc([C@H]2C(C(=O)c3ccc(Cl)cc3)C3(N[C@@H]2c2ccccc2)C(=O)Nc2ccc(Br)cc23)cc1 (some centres undefined),GI50,HL-60(TB) leukemia,23.1 µM
same,TGI,HL-60(TB) leukemia,63.1 µM
same,GI50,LOX IMVI melanoma,15.7 µM
same,TGI,LOX IMVI melanoma,30.4 µM
same,GI50,IGROV1 ovarian,14.2 µM
same,TGI,IGROV1 ovarian,31.6 µM
same,GI50,CCRF-CEM leukemia,23.1 µM
same,TGI,CCRF-CEM leukemia,72 µM
same,GI50,HCT-116 colon,14.6 µM
same,TGI,HCT-116 colon,29.7 µM
same,GI50,HCT-15 colon,16.1 µM
same,TGI,HCT-15 colon,35.3 µM
same,GI50,UO-31 renal,12.9 µM
same,TGI,UO-31 renal,25.6 µM
same,GI50,SNB-75 CNS,11.3 µM
same,TGI,SNB-75 CNS,23.7 µM
same,GI50,PC-3 prostate,13.8 µM
same,TGI,PC-3 prostate,27.6 µM
same,GI50,OVCAR-4 ovarian,14.3 µM
same,TGI,OVCAR-4 ovarian,28.1 µM
same,GI50,EKVX NSCLC,15.9 µM
same,TGI,EKVX NSCLC,35.4 µM
same,GI50,TK-10 renal,13.7 µM
same,TGI,TK-10 renal,28.8 µM
same,GI50,SK-MEL-2 melanoma,14.1 µM
same,TGI,SK-MEL-2 melanoma,27.9 µM
same,GI50,RPMI-8226 leukemia,22 µM
same,TGI,RPMI-8226 leukemia,70.8 µM
same,GI50,OVCAR-3 ovarian,17.5 µM
same,TGI,OVCAR-3 ovarian,38 µM
same,GI50,SF-295 CNS,16.1 µM
same,TGI,SF-295 CNS,30.3 µM
same,GI50,MCF7 breast,14 µM
same,TGI,MCF7 breast,36.7 µM
same,GI50,K-562 leukemia,25.3 µM
same,TGI,K-562 leukemia,> 100 µM
same,GI50,KM12 colon,17.1 µM
same,TGI,KM12 colon,49.1 µM
same,GI50,SF-539 CNS,15.9 µM
same,TGI,SF-539 CNS,30.5 µM
same,GI50,NCI-H226 lung,15.1 µM
same,TGI,NCI-H226 lung,32.6 µM
same,GI50,786-0 renal,15.4 µM
same,TGI,786-0 renal,30.1 µM
same,GI50,OVCAR-5 ovarian,14.6 µM
same,TGI,OVCAR-5 ovarian,29.4 µM
same,GI50,SR leukemia,15.5 µM
same,TGI,SR leukemia,44 µM
same,GI50,MOLT-4 leukemia,18.2 µM
same,TGI,MOLT-4 leukemia,73.8 µM
same,GI50,SK-MEL-5 melanoma,18 µM
same,TGI,SK-MEL-5 melanoma,32.7 µM
same,GI50,UACC-62 melanoma,13.3 µM
same,TGI,UACC-62 melanoma,27.1 µM
same,GI50,HS 578T breast,17.9 µM
same,TGI,HS 578T breast,47.8 µM
same,GI50,HOP-92 NSCLC,7.75 µM
same,TGI,HOP-92 NSCLC,21.8 µM
same,GI50,SK-OV-3 ovarian,14.5 µM
same,TGI,SK-OV-3 ovarian,28.3 µM
same,GI50,M14 melanoma,15 µM
same,TGI,M14 melanoma,30.1 µM
same,GI50,SW-620 colon,18.5 µM
same,TGI,SW-620 colon,40.9 µM
same,GI50,OVCAR-8 ovarian,16.4 µM
same,TGI,OVCAR-8 ovarian,32 µM
same,GI50,U251 CNS,15 µM
same,TGI,U251 CNS,29.8 µM
same,GI50,NCI-H460 lung,16.7 µM
same,TGI,NCI-H460 lung,35.5 µM
same,GI50,MDA-MB-231 breast,15.8 µM
same,TGI,MDA-MB-231 breast,31.8 µM
same,GI50,HCC-2998 colon,15.7 µM
same,TGI,HCC-2998 colon,31 µM
same,GI50,DU-145 prostate,17.7 µM
same,TGI,DU-145 prostate,38 µM
same,GI50,MDA-MB-435,15.9 µM
same,TGI,MDA-MB-435,30.3 µM
same,GI50,T-47D breast,14.2 µM
same,TGI,T-47D breast,35.2 µM
same,GI50,SN12C renal,15.2 µM
same,TGI,SN12C renal,31.2 µM
same,GI50,RXF 393 renal,13.1 µM
same,TGI,RXF 393 renal,26.1 µM
same,GI50,NCI-H522 lung,14.2 µM
same,TGI,NCI-H522 lung,28.2 µM
same,GI50,HT29 colon,14.9 µM
same,TGI,HT29 colon,31 µM
same,GI50,COLO 205 colon,15 µM
same,TGI,COLO 205 colon,30.1 µM
same,GI50,CAKI-1 renal,13.1 µM
same,TGI,CAKI-1 renal,26.2 µM
same,GI50,NCI/ADR-RES ovarian,19.8 µM
same,TGI,NCI/ADR-RES ovarian,44.8 µM
same,GI50,SK-MEL-28 melanoma,16.1 µM
same,TGI,SK-MEL-28 melanoma,30.4 µM
same,GI50,UACC-257 melanoma,14.7 µM
same,TGI,UACC-257 melanoma,29 µM
same,GI50,A498 renal,14.3 µM
same,TGI,A498 renal,28.8 µM
same,GI50,A549 NSCLC,13.9 µM
same,TGI,A549 NSCLC,28.9 µM
same,GI50,ACHN renal,15 µM
same,TGI,ACHN renal,28.6 µM
same,GI50,BT-549 breast,15.6 µM
same,TGI,BT-549 breast,29.9 µM
same,GI50,SNB-19 CNS,15.2 µM
same,TGI,SNB-19 CNS,29.7 µM
same,GI50,SF-268 CNS,17.3 µM
same,TGI,SF-268 CNS,39.4 µM
same,GI50,HOP-62 NSCLC,14.3 µM
same,TGI,HOP-62 NSCLC,28 µM
same,GI50,MALME-3M melanoma,14.7 µM
same,TGI,MALME-3M melanoma,28.5 µM
